Like-named read-outs stand apart in the source and are kept apart here.
Key:
SARS CoV-2 PLpro [1] = target: T1, SARS CoV-2 PLpro (Severe acute respiratory syndrome coronavirus 2 (2019-nCoV) (SARS-CoV-2), UniProt P0DTD1); test: biochemical; assay type: biochemical
SARS CoV-2 PLpro [2] = target: T1, SARS CoV-2 PLpro; test: biochemical; assay type: binding
in vitro [3] = settings: human, Caco-2
SARS CoV-2 PLpro [4] = target: T1, SARS CoV-2 PLpro; test: biochemical; settings: Table 8; read-out: FRET Enzymatic assay IC50
SARS CoV-2 PLpro [5] = target: T1, SARS CoV-2 PLpro; test: cell-based; settings: read-out: FlipGFP-PLpro assay EC50
[6] = human
in vitro [7] = settings: human, microsomes
[8] = Table 7, read-out: Enzymatic assay IC50
[9] = read-out: SPR binding assays KD
[10] = read-out: Enzyme inhibition IC50
[11] = Table 7, read-out: SPR binding assay KD

Molecule: Cc1ccc(N)cc1S(=O)(=O)N[C@H](C)c1cccc2ccccc12 [Example 48, (R)-5-amino-2-methyl-N-(1-(naphthalen-1-yl)ethyl)benzenesulfonamide]
- IC50 (SARS CoV-2 PLpro [1]; [8]): > 100 µM

Molecule: Cc1ccc(N(C)C2CNC2)cc1C(=O)N[C@H](C)c1cccc2c1ccn2CC1CCC1 [Example 50, (R)-5-(azetidin-3-yl(methyl)amino)-N-(1-(1-(cyclobutylmethyl)-1H-indol-4-yl)ethyl)-2-methylbenzamide]
- Kd (SARS CoV-2 PLpro [2]; read-out: SPR binding assay KD): 14.1 µM
- IC50 (SARS CoV-2 PLpro [1]; read-out: Enzymatic assay IC50): 3.3 µM

Molecule: Cc1ccc(NC2CN(C(=O)OC(C)(C)C)C2)cc1C(=O)N[C@H](C)c1cccc2ccccc12 [Example 1, Tert-butyl (R)-3-((4-methyl-3-((1-(naphthalen-1-yl)ethyl)carbamoyl)phenyl)amino)azetidine-1-carboxylate]
- Kd (SARS CoV-2 PLpro [2]; read-out: SPR binding assay KD): 16 µM
- IC50 (SARS CoV-2 PLpro [1]; read-out: Enzymatic assay IC50): 6.1 µM

Molecule: C[C@H]1O[C@@H](O[C@H]2[C@@H](O)C[C@H](O[C@H]3[C@@H](O)C[C@H](O[C@H]4CC[C@@]5(C)[C@H](CC[C@@H]6[C@@H]5C[C@@H](O)[C@]5(C)[C@@H](C7=CC(=O)OC7)CC[C@]65O)C4)O[C@@H]3C)O[C@@H]2C)C[C@H](O)[C@@H]1O [Digoxin]
- Papp A→B (in vitro [3]): 0.4 ×10⁻⁶ cm/s
- Papp B→A (in vitro [3]): 10.4 ×10⁻⁶ cm/s

Molecule: Cc1ccc(N)cc1C(=O)N[C@H](C)c1c(O)ccc2ccccc12 [Example 27, (R)-5-amino-N-(1-(2-hydroxynaphthalen-1-yl)ethyl)-2-methylbenzamide]
- Kd (SARS CoV-2 PLpro [2]; read-out: SPR binding assay KD): 184 µM
- IC50 (SARS CoV-2 PLpro [1]; [8]): > 100 µM

Molecule: Cc1ccc(NC2CN(C(=O)OC(C)(C)C)C2)cc1C(=O)N[C@H](C)c1cccc2ccccc12 [ZN-2-180]
- Kd (SARS CoV-2 PLpro [2]; [9]): 16 µM
- IC50 (SARS CoV-2 PLpro [1]; [10]): 6.08 µM

Molecule: Cc1ccc([N+](=O)[O-])cc1C(=O)NC(C)c1c[nH]c2ccccc12 (stereo not shown)
- IC50 (SARS CoV-2 PLpro [1]; [8]): > 100 µM

Molecule: CC(C)NCC(O)COc1cccc2ccccc12 (stereo not shown) [Propranolol]
- Papp A→B (in vitro [3]): 17.9 ×10⁻⁶ cm/s
- Papp B→A (in vitro [3]): 18.3 ×10⁻⁶ cm/s
- efflux ratio (in vitro [3]): 1.02

Molecule: Cc1ccc(NC2CNC2)cc1C(=O)N[C@H](C)c1cccc(-c2ccc(CO)s2)c1
- IC50 (SARS CoV-2 PLpro [1]; [8]): 1.57 µM

Molecule: Cc1ccc(NC(=O)C2CN(C(=O)OC(C)(C)C)C2)cc1C(=O)N[C@H](C)c1cccc2ccccc12 [Example 3, Tert-butyl (R)-3-((4-methyl-3-((1-(naphthalen-1-yl)ethyl)carbamoyl)phenyl)carbamoyl)azetidine-1-carboxylate]
- Kd (SARS CoV-2 PLpro [2]; read-out: SPR binding assay KD): 32.6 µM
- IC50 (SARS CoV-2 PLpro [1]; read-out: Enzymatic assay IC50): 5.5 µM

Molecule: Cc1ccc(NC2CNC2)cc1C(=O)N[C@H](C)c1cccc2ccccc12 [Example 5, (R)-5-(azetidin-3-ylamino)-2-methyl-N-(1-(naphthalen-1-yl)ethyl)benzamide]
- Kd (SARS CoV-2 PLpro [2]; [11]): 0.81 µM

Molecule: Cc1ccc(OC2CNC2)cc1C(=O)N[C@H](C)c1cccc(-c2ccc(CN[C@H]3CC[C@@H](C(=O)NCCOCCOCCOCCOCCNc4cccc5c4C(=O)N(C4CCC(=O)NC4=O)C5=O)C3)s2)c1 (stereo partly shown)
- IC50 (SARS CoV-2 PLpro [4]): 1.67 ± 0.33 µM
- EC50 (SARS CoV-2 PLpro [5]): > 20 µM

Molecule: C[C@@H](NC(=O)c1cc(NC2CNC2)ccc1Cl)c1csc2ccccc12 [Example 54, (R)-5-(azetidin-3-ylamino)-N-(1-(benzo[b]thiophen-3-yl)ethyl)-2-chlorobenzamide]
- Kd (SARS CoV-2 PLpro [2]; read-out: SPR binding assay KD): 33 µM
- IC50 (SARS CoV-2 PLpro [1]; read-out: Enzymatic assay IC50): 8.5 µM

Molecule: Cc1ccc(N)cc1CNC(C)c1cccc2ccccc12 (stereo not shown) [DY2-64]
- PLpro inhibition potency, in words (SAR) (SARS CoV-2 PLpro [1]): sharp decline in potency

Molecule: Cc1ccc(CNCC(=O)O)cc1C(=O)N[C@H](C)c1cccc2ccccc12 [ZN-3-56]
- PLpro inhibition potency, in words (SAR) (SARS CoV-2 PLpro [1]; compared with GRL0617 / parent): slight improvement of potency over GRL0617

Molecule: Cc1ccc(OC2CNC2)cc1C(=O)N[C@H](C)c1cccc(-c2ccc(CN[C@H]3CC[C@@H](C(=O)OC[C@H]4O[C@@H](n5ccc(NO)nc5=O)[C@H](O)[C@@H]4O)C3)s2)c1
- IC50 (SARS CoV-2 PLpro [4]): 0.75 ± 0.05 µM
- EC50 (SARS CoV-2 PLpro [5]): > 20 µM

Molecule: Cc1ccc(NC2CNC2)cc1C(=O)N[C@H](C)c1cccc(-c2ccc(CN[C@H]3CC[C@@H](OC(=O)/C=C/c4cccnc4)C3)s2)c1
- IC50 (SARS CoV-2 PLpro [1]; [8]): 0.387 µM

Molecule: Cc1ccc(N)cc1C(=O)NC(CO)c1cccc2ccccc12 (stereo not shown) [Example 26, 5-amino-N-(2-hydroxy-1-(naphthalen-1-yl)ethyl)-2-methylbenzamide]
- IC50 (SARS CoV-2 PLpro [1]; [8]): ~100 µM

Molecule: Cc1ccc(NC(=O)C2CCN(C(=O)OC(C)(C)C)CC2)cc1C(=O)N[C@H](C)c1cccc2ccccc12 [ZN-2-183]
- Kd (SARS CoV-2 PLpro [2]; [9]): 31.1 µM
- IC50 (SARS CoV-2 PLpro [1]; [10]): 6 µM

Molecule: Cc1ccc(OC2CNC2)cc1C(=O)N[C@H](C)c1cccc(-c2ccc(CN3CCCC3)o2)c1
- IC50 (SARS CoV-2 PLpro [4]): 4.58 ± 0.92 µM
- EC50 (SARS CoV-2 PLpro [5]): > 60 µM

Molecule: Cc1ccc(NC2CNC2)cc1C(=O)N[C@H](C)c1cccc2ccccc12 [ZN-2-184]
- Kd (SARS CoV-2 PLpro [2]; KD2): 1.17 µM
- Kd (SARS CoV-2 PLpro [2]; KD3): 1.06 µM
- Kd (SARS CoV-2 PLpro [2]; KD4): 0.856 µM
- rate of association relative to GRL0617 (SARS CoV-2 PLpro [2]; SPR): twofold increase in rate of association
- Ave ka (SARS CoV-2 PLpro [2]; SPR association rate, average of replicates): 340000 M⁻¹ s⁻¹
- ka1 (SARS CoV-2 PLpro [2]; SPR association rate, replicate 1): 426000 M⁻¹ s⁻¹
- ka2 (SARS CoV-2 PLpro [2]; SPR association rate, replicate 2): 348000 M⁻¹ s⁻¹
- ka3 (SARS CoV-2 PLpro [2]; SPR association rate, replicate 3): 231000 M⁻¹ s⁻¹
- ka4 (SARS CoV-2 PLpro [2]; SPR association rate, replicate 4): 356000 M⁻¹ s⁻¹
- Ave kd (SARS CoV-2 PLpro [2]; SPR dissociation rate, average of replicates): 0.349 s⁻¹
- kd1 (SARS CoV-2 PLpro [2]; SPR dissociation rate, replicate 1): 0.438 s⁻¹
- kd2 (SARS CoV-2 PLpro [2]; SPR dissociation rate, replicate 2): 0.407 s⁻¹
- kd3 (SARS CoV-2 PLpro [2]; SPR dissociation rate, replicate 3): 0.246 s⁻¹
- kd4 (SARS CoV-2 PLpro [2]; SPR dissociation rate, replicate 4): 0.305 s⁻¹
- Kd (SARS CoV-2 PLpro [2]; [9]): 1.03 µM
- PLpro inhibition potency, in words (SAR) (SARS CoV-2 PLpro [1]; compared with GRL0617 / parent): two-fold improvement relative to GRL0617
- IC50 (SARS CoV-2 PLpro [1]; [10]): 1.01 µM

Molecule: Cc1ccc(NC(=O)C2CCN(C(=O)OC(C)(C)C)CC2)cc1C(=O)N[C@H](C)c1cccc2ccccc12 [Example 4, Tert-butyl (R)-4-((4-methyl-3-((1-(naphthalen-1-yl)ethyl)carbamoyl)phenyl)carbamoyl)piperidine-1-carboxylate]
- Kd (SARS CoV-2 PLpro [2]; read-out: SPR binding assay KD): 31.1 µM
- IC50 (SARS CoV-2 PLpro [1]; read-out: Enzymatic assay IC50): 6 µM

Molecule: Cc1ccc(N(C)C2CNC2)cc1C(=O)N[C@H](C)c1c(OC2CNC2)ccc2ccccc12 [Example 30, (R)-5-(azetidin-3-yl(methyl)amino)-N-(1-(2-(azetidin-3-yloxy)naphthalen-1-yl)ethyl)-2-methylbenzamide]
- IC50 (SARS CoV-2 PLpro [1]; [8]): > 100 µM

Molecule: (R)-6-amino-3-methyl-N- (1-(naphthalen-1- yl)ethyl)picolinamide [Example 40]
- Kd (SARS CoV-2 PLpro [2]; read-out: SPR binding assay KD): > 1000 µM
- IC50 (SARS CoV-2 PLpro [1]; read-out: Enzymatic assay IC50): 10 to 100 µM

Molecule: Cc1ccc(NC2CNC2)cc1C(=O)N[C@H](C)c1cccc(-c2ccc(CNC(=O)C(F)(F)C(F)(F)F)s2)c1
- IC50 (SARS CoV-2 PLpro [1]; [8]): 0.442 µM

Molecule: CN(C)CC[C@@H](NC(=O)c1cccc(N(C)C2CNC2)c1)c1cccc2ccccc12 [Example 41, (R)-3-(azetidin-3-yl(methyl)amino)-N-(3-(dimethylamino)-1-(naphthalen-1-yl)propyl)benzamide]
- IC50 (SARS CoV-2 PLpro [1]; [8]): > 100 µM

Molecule: Cc1ccc(NC2CNC2)cc1C(=O)N[C@H](C)c1cccc(-c2ccc(CN3CC[C@H](O)C3)s2)c1 [XR8-57]
- In vitro CIint [6]: 0.27 μL/min/mg protein
- Scale-up CIint [6]: 0.34 mL/min/kg
- half-life (in vitro [7]): 85.4 h

Molecule: CCOC(=O)[C@@H]1CC[C@H](NCc2cnc(-c3cccc([C@@H](C)NC(=O)c4cc(NC5CNC5)ccc4C)c3)s2)C1
- IC50 (SARS CoV-2 PLpro [1]; [8]): 0.496 µM

Molecule: Cc1ccc(N)cc1C(=O)N[C@H](C)c1cccc2cccnc12 [Example 35, (R)-5-amino-2-methyl-N-(1-(quinolin-8-yl)ethyl)benzamide]
- Kd (SARS CoV-2 PLpro [2]; [11]): > 1000 µM

Molecule: Cc1ccc(N)cc1C(=O)NC(C)c1cccc2cc[nH]c12 (stereo not shown) [Example 18, N-(1-(1H-indol-7-yl)ethyl)-5-amino-2-methylbenzamide]
- Kd (SARS CoV-2 PLpro [2]; read-out: SPR binding assay KD): 30.3 µM
- IC50 (SARS CoV-2 PLpro [1]; read-out: Enzymatic assay IC50): 4.7 µM

Molecule: Cc1ccc(OC2CNC2)cc1C(=O)N[C@H](C)c1cccc(-c2ccc(CN[C@H]3CC[C@@H](O)C3)o2)c1
- IC50 (SARS CoV-2 PLpro [4]): 3.02 ± 0.58 µM
- EC50 (SARS CoV-2 PLpro [5]): > 60 µM

Molecule: C=C(N[C@H](C)c1cccc2ccccc12)C(=O)c1cc(N(C)C2CNC2)ccc1Cl [ZN-3-70]
- Kd (SARS CoV-2 PLpro [2]; Table 10, read-out: SPR binding assays KD): 41.9 µM
- IC50 (SARS CoV-2 PLpro [1]; Table 10, read-out: Enzyme inhibition IC50): 10.7 µM

Molecule: Cc1ccc(N)cc1S(=O)(=O)NC(C)c1cccc2ccccc12 (stereo not shown) [DY3-63]
- PLpro inhibition potency, in words (SAR) (SARS CoV-2 PLpro [1]): sharp decline in potency

Molecule: Cc1ccc(N)cc1C(=O)NC(CO)c1cccc2ccccc12 (stereo not shown) [ZN-3-13]
- Kd (SARS CoV-2 PLpro [2]; [9]): 39.1 µM
- IC50 (SARS CoV-2 PLpro [1]; Table 11, read-out: Enzyme inhibition IC50): ~100 µM

Molecule: Cc1ccc(NC2CNC2)cc1C(=O)N[C@H](C)c1cccc(-c2ncc(CN3CCCC3)s2)c1
- IC50 (SARS CoV-2 PLpro [1]; [8]): 3.14 µM

Molecule: Cc1ccc(NC2CCN(C(=O)OC(C)(C)C)CC2)cc1C(=O)N[C@H](C)c1cccc2ccccc12 [Example 2, Tert-butyl (R)-4-((4-methyl-3-((1-(naphthalen-1-yl)ethyl)carbamoyl)phenyl)amino)piperidine-1-carboxylate]
- Kd (SARS CoV-2 PLpro [2]; read-out: SPR binding assay KD): 4.7 µM
- IC50 (SARS CoV-2 PLpro [1]; read-out: Enzymatic assay IC50): 1.1 µM

Molecule: Cc1ccc(NC2CCN(C(=O)OC(C)(C)C)CC2)cc1C(=O)N[C@H](C)c1cccc2ccccc12 [ZN-2-181]
- Kd (SARS CoV-2 PLpro [2]; [9]): 4.7 µM
- IC50 (SARS CoV-2 PLpro [1]; [10]): 1.1 µM

— patent US20240166598A1, “COMPOUNDS, COMPOSITIONS, AND METHODS OF USING THE SAME” (priority 2021, published 2024)
